# Experimental data from ChEMBL document CHEMBL4507275, “Data for DCP probe BI-2545” (2021).
# Columns and labels:
# [1] = target: Inhibitor of nuclear factor kappa-B kinase subunit epsilon (Homo sapiens) (UniProt Q14164); conditions: Compound concentration 1000.0 nM
# [2] = target: Phosphatidylinositol 4-phosphate 5-kinase type-1 alpha (Homo sapiens) (UniProt Q99755); conditions: Compound concentration 1000.0 nM
# [3] = system: Epidermal growth factor receptor (Homo sapiens), P00533 [L858R,T790M]; conditions: Compound concentration 1000.0 nM
# [4] = target: Serine/threonine-protein kinase PLK1 (Homo sapiens) (UniProt P53350); conditions: Compound concentration 1000.0 nM
# [5] = target: Mitogen-activated protein kinase 13 (Homo sapiens) (UniProt O15264); conditions: Compound concentration 1000.0 nM
# [6] = system: Epidermal growth factor receptor (Homo sapiens), P00533 [L861Q]; conditions: Compound concentration 1000.0 nM
# [7] = target: Activin receptor type-2A (Homo sapiens) (UniProt P27037); conditions: Compound concentration 1000.0 nM
# [8] = target: Discoidin domain-containing receptor 2 (Homo sapiens) (UniProt Q16832); conditions: Compound concentration 1000.0 nM
# [9] = target: Maternal embryonic leucine zipper kinase (Homo sapiens) (UniProt Q14680); conditions: Compound concentration 1000.0 nM
# [10] = target: Receptor tyrosine-protein kinase erbB-2 (Homo sapiens) (UniProt P04626); conditions: Compound concentration 1000.0 nM
# [11] = target: Cyclin-dependent kinase 8 (Homo sapiens) (UniProt P49336); conditions: Compound concentration 1000.0 nM
# [12] = target: BMP-2-inducible protein kinase (Homo sapiens) (UniProt Q9NSY1); conditions: Compound concentration 1000.0 nM
# [13] = target: Cytoplasmic tyrosine-protein kinase BMX (Homo sapiens) (UniProt P51813); conditions: Compound concentration 1000.0 nM
# Sequence of Cytoplasmic tyrosine-protein kinase BMX (Homo sapiens) (P51813 whole entry): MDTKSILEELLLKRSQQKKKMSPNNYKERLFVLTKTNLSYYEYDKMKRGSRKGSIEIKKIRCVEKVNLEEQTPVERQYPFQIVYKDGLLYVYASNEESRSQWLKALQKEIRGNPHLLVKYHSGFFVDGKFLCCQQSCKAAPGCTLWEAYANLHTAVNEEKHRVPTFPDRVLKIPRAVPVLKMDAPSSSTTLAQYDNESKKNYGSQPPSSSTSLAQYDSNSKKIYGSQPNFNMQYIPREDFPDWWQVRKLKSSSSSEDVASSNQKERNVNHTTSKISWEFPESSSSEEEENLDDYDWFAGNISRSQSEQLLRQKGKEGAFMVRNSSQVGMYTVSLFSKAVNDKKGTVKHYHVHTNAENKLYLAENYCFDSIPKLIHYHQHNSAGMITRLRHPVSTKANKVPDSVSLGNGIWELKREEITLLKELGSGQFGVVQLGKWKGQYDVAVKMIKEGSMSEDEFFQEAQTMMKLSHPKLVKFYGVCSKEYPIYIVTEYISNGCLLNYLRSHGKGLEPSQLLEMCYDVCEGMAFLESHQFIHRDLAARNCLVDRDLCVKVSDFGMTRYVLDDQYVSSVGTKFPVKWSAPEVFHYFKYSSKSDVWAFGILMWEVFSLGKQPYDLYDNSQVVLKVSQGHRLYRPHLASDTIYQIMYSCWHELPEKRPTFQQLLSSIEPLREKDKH
# [14] = target: Rhodopsin kinase GRK1 (Homo sapiens) (UniProt Q15835); conditions: Compound concentration 1000.0 nM
# Sequence of Rhodopsin kinase GRK1 (Homo sapiens) (Q15835 whole entry): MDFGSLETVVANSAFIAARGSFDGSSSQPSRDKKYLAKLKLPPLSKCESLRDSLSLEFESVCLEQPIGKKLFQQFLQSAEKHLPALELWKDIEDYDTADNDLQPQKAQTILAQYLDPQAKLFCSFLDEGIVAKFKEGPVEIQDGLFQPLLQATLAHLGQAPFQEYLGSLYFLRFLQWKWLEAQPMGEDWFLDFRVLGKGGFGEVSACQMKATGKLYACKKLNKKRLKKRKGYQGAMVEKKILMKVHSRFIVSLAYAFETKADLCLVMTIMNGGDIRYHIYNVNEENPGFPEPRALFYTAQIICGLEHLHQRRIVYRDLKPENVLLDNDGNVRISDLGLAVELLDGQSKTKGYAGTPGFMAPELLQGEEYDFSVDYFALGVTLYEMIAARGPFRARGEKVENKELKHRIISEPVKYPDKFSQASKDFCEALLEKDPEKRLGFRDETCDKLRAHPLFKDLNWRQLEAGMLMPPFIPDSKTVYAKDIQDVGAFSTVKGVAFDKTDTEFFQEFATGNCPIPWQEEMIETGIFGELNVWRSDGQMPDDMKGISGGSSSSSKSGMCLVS
# [15] = target: Serine/threonine-protein kinase tousled-like 2 (Homo sapiens) (UniProt Q86UE8); conditions: Compound concentration 1000.0 nM
# [16] = target: D(1B) dopamine receptor (Homo sapiens) (UniProt P21918); conditions: Compound concentration 10.0 uM
# [17] = target: Serine/threonine-protein kinase PRP4 homolog (Homo sapiens) (UniProt Q13523); conditions: Compound concentration 1000.0 nM
# [18] = target: Serine/threonine-protein kinase Nek7 (Homo sapiens) (UniProt Q8TDX7); conditions: Compound concentration 1000.0 nM
# [19] = system: Mast/stem cell growth factor receptor Kit (Homo sapiens), P10721 [D816V]; conditions: Compound concentration 1000.0 nM
# [20] = target: Mitogen-activated protein kinase 11 (Homo sapiens) (UniProt Q15759); conditions: Compound concentration 1000.0 nM
# [21] = target: Inhibitor of nuclear factor kappa-B kinase subunit alpha (Homo sapiens) (UniProt O15111); conditions: Compound concentration 1000.0 nM
# [22] = target: Mitogen-activated protein kinase kinase kinase kinase 2 (Homo sapiens) (UniProt Q12851); conditions: Compound concentration 1000.0 nM
# [23] = target: Cyclin-dependent kinase 19 (Homo sapiens) (UniProt Q9BWU1); conditions: Compound concentration 1000.0 nM
# [24] = system: Receptor-type tyrosine-protein kinase FLT3 (Homo sapiens), P36888 [UNDEFINED MUTATION]; conditions: Compound concentration 1000.0 nM
# [25] = target: Dual specificity testis-specific protein kinase 1 (Homo sapiens) (UniProt Q15569); conditions: Compound concentration 1000.0 nM
# [26] = target: Leukocyte tyrosine kinase receptor (Homo sapiens) (UniProt P29376); conditions: Compound concentration 1000.0 nM
# [27] = system: Mast/stem cell growth factor receptor Kit (Homo sapiens), P10721 [V559D]; conditions: Compound concentration 1000.0 nM
# [28] = target: Serine/threonine-protein kinase SIK3 (Homo sapiens) (UniProt Q9Y2K2); conditions: Compound concentration 1000.0 nM
# [29] = target: Calcium/calmodulin-dependent protein kinase type 1G (Homo sapiens) (UniProt Q96NX5); conditions: Compound concentration 1000.0 nM
# [30] = target: Serine/threonine-protein kinase DCLK2 (Homo sapiens) (UniProt Q8N568); conditions: Compound concentration 1000.0 nM
# [31] = target: Cyclin-dependent kinase-like 5 (Homo sapiens) (UniProt O76039); conditions: Compound concentration 1000.0 nM
# [32] = system: eIF-2-alpha kinase GCN2 (Homo sapiens), Q9P2K8 [S808G]; conditions: Compound concentration 1000.0 nM
# [33] = target: MAP kinase-activated protein kinase 2 (Homo sapiens) (UniProt P49137); conditions: Compound concentration 1000.0 nM
# [34] = target: Vascular endothelial growth factor receptor 2 (Homo sapiens) (UniProt P35968); conditions: Compound concentration 1000.0 nM
# [35] = target: Serine/threonine-protein kinase PAK 1 (Homo sapiens) (UniProt Q13153); conditions: Compound concentration 1000.0 nM
# Sequence of Serine/threonine-protein kinase PAK 1 (Homo sapiens) (Q13153 whole entry): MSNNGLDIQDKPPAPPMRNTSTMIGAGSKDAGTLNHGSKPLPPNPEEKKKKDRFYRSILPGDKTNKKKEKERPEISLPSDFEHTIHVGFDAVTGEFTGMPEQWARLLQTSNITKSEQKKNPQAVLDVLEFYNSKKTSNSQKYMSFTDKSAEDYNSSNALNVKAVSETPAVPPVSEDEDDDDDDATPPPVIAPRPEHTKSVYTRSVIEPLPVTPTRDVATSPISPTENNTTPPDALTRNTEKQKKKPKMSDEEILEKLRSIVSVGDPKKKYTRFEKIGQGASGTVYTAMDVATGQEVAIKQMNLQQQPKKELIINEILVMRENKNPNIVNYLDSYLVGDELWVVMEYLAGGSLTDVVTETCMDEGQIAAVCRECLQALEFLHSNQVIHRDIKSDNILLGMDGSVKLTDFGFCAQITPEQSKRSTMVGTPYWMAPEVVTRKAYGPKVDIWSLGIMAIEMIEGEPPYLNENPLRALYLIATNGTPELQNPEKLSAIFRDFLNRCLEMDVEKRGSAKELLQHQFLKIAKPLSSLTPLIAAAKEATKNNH
# [36] = target: Serine/threonine-protein kinase N2 (Homo sapiens) (UniProt Q16513); conditions: Compound concentration 1000.0 nM
# Sequence of Serine/threonine-protein kinase N2 (Homo sapiens) (Q16513 whole entry, looked up): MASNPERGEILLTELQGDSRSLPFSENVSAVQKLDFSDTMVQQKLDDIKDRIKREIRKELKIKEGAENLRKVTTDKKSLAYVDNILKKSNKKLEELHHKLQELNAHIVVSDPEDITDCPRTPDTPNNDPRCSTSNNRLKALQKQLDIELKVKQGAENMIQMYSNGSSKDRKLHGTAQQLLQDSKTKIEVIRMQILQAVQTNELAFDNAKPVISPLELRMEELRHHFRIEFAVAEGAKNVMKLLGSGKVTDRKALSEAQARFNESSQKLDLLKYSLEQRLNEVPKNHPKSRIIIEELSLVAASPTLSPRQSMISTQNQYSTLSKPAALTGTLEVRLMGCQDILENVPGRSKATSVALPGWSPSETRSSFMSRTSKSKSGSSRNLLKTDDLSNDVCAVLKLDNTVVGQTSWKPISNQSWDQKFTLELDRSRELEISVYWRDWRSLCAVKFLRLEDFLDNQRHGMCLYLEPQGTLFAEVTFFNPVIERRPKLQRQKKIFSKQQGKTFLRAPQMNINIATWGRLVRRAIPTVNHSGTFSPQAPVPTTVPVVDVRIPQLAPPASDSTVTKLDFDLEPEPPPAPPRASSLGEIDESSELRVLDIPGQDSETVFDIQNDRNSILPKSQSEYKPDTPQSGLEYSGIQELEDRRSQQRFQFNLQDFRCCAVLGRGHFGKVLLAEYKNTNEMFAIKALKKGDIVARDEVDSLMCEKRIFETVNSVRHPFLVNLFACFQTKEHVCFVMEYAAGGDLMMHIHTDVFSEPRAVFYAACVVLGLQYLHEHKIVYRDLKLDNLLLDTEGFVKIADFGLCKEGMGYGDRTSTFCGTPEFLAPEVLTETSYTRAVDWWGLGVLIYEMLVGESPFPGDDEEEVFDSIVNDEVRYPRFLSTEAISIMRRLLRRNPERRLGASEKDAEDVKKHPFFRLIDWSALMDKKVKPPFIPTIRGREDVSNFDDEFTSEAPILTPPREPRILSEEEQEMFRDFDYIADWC
# [37] = target: Platelet-derived growth factor receptor beta (Homo sapiens) (UniProt P09619); conditions: Compound concentration 1000.0 nM
# Sequence of Platelet-derived growth factor receptor beta (Homo sapiens) (P09619 whole entry): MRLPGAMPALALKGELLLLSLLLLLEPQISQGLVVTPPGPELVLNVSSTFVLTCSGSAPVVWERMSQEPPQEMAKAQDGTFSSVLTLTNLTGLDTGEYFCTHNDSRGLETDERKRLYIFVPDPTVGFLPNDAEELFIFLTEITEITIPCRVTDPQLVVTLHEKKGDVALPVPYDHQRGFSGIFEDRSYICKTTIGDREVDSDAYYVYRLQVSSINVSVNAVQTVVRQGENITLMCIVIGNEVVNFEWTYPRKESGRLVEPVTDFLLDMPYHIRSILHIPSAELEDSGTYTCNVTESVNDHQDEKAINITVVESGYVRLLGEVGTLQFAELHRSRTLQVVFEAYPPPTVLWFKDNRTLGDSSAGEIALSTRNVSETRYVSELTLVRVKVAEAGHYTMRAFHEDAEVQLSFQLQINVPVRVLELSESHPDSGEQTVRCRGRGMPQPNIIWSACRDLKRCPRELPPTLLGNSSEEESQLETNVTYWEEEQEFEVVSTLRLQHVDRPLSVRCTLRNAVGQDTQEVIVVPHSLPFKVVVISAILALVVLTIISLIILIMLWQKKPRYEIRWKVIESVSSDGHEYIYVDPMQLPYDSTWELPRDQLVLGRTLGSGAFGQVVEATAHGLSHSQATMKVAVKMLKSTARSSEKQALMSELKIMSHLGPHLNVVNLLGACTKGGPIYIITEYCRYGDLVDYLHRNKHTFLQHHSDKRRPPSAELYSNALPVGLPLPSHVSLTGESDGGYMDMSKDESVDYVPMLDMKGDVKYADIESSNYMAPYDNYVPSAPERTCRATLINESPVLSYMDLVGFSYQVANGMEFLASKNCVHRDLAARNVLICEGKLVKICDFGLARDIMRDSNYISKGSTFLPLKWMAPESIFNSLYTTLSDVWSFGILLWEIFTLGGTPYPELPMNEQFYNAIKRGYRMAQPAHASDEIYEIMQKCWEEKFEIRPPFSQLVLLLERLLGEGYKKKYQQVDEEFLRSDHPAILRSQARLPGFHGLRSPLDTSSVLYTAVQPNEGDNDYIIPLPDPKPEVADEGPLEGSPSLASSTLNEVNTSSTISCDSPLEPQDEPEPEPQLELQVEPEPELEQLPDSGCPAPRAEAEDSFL
# [38] = target: Alpha-2B adrenergic receptor (Homo sapiens) (UniProt P18089); conditions: Compound concentration 10.0 uM
# [39] = system: Mast/stem cell growth factor receptor Kit (Homo sapiens), P10721 [V559D,V654A]; conditions: Compound concentration 1000.0 nM
# [40] = system: Tyrosine-protein kinase ABL1 (Homo sapiens), P00519 [E255K]; conditions: Compound concentration 1000.0 nM
# Sequence of Tyrosine-protein kinase ABL1 (Homo sapiens), P00519 [E255K] (P00519 whole entry E255K): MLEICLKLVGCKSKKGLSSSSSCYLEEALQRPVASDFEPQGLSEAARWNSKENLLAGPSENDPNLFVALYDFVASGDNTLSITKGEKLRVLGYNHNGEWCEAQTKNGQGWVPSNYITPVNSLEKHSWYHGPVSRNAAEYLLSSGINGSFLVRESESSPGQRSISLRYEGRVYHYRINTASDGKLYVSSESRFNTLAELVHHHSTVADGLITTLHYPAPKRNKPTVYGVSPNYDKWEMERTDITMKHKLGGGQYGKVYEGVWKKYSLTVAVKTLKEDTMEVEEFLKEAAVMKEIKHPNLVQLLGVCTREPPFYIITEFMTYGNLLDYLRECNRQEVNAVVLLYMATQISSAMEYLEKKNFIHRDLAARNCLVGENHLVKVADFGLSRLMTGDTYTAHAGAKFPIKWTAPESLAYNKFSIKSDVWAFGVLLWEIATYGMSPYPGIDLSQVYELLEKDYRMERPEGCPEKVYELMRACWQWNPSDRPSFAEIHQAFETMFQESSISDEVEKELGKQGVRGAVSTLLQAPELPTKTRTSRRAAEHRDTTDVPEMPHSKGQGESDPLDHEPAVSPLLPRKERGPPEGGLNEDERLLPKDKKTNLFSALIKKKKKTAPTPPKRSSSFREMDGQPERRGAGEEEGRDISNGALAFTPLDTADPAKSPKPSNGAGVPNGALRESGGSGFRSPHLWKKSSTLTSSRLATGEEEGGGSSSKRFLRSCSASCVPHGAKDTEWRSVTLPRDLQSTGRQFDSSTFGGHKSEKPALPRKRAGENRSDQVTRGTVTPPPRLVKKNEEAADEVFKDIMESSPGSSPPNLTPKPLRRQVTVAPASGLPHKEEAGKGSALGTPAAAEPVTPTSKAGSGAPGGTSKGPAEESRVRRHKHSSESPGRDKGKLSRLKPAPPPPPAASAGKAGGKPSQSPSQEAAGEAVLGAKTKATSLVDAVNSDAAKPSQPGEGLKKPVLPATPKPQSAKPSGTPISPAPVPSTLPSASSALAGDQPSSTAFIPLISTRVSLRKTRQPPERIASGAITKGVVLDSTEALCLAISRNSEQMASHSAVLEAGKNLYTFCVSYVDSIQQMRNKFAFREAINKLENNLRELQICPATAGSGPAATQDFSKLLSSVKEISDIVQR
# [41] = target: Mitogen-activated protein kinase 10 (Homo sapiens) (UniProt P53779); conditions: Compound concentration 1000.0 nM
# Rattus norvegicus = species: Rattus norvegicus; conditions: Compound concentration 10.0 uM
# [42] = target: LIM domain kinase 2 (Homo sapiens) (UniProt P53671); conditions: Compound concentration 1000.0 nM
# [43] = target: Non-receptor tyrosine-protein kinase TYK2 (Homo sapiens) (UniProt P29597); conditions: Compound concentration 1000.0 nM
# [44] = target: Tyrosine-protein kinase CSK (Homo sapiens) (UniProt P41240); conditions: Compound concentration 1000.0 nM
structure (smiles),measurement,setting,value
O=C(NC[C@@H]1[C@H]2CN(C(=O)OCc3cc(C(F)(F)F)cc(C(F)(F)F)c3)C[C@@H]12)c1ccc2[nH]nnc2c1 [BI 2545],residual activity,[1],100%
same,residual activity,[2],93%
same,residual activity,[3],80%
same,residual activity,[4],100%
same,residual activity,[5],100%
same,residual activity,[6],100%
same,residual activity,[7],92%
same,residual activity,[8],82%
same,residual activity,[9],97%
same,residual activity,[10],100%
same,residual activity,[11],100%
same,residual activity,[12],85%
same,residual activity,[13],81%
same,residual activity,[14],90%
same,residual activity,[15],90%
same,inhibition,[16],21.6%
same,residual activity,[17],100%
same,residual activity,[18],83%
same,residual activity,[19],93%
same,residual activity,[20],100%
same,residual activity,[21],100%
same,residual activity,[22],92%
same,residual activity,[23],89%
same,residual activity,[24],85%
same,residual activity,[25],79%
same,residual activity,[26],98%
same,residual activity,[27],88%
same,residual activity,[28],79%
same,residual activity,[29],100%
same,residual activity,[30],100%
same,residual activity,[31],100%
same,residual activity,[32],84%
same,residual activity,[33],100%
same,residual activity,[34],96%
same,residual activity,[35],100%
same,residual activity,[36],93%
same,residual activity,[37],90%
same,inhibition,[38],25.2%
same,residual activity,[39],99%
same,residual activity,[40],92%
same,residual activity,[41],90%
same,inhibition,Rattus norvegicus,63.7%
same,residual activity,[42],83%
same,residual activity,[43],100%
same,residual activity,[44],96%
Cc1nccc(COC(=O)N2C[C@@H]3[C@@H](CNC(=O)c4ccc5[nH]nnc5c4)[C@@H]3C2)n1 [BI 3017],residual activity,[1],100%
same,residual activity,[2],100%
same,residual activity,[3],100%
same,residual activity,[4],92%
same,residual activity,[5],98%
same,residual activity,[6],100%
same,residual activity,[7],69%
same,residual activity,[8],77%
same,residual activity,[9],100%
same,residual activity,[10],99%
same,residual activity,[11],75%
same,residual activity,[12],100%
same,residual activity,[13],88%
same,residual activity,[14],100%
same,residual activity,[15],100%
same,inhibition,[16],16.4%
same,residual activity,[17],95%
same,residual activity,[18],100%
same,residual activity,[19],100%
same,residual activity,[20],94%
same,residual activity,[21],100%
same,residual activity,[22],84%
same,residual activity,[23],97%
same,residual activity,[24],100%
same,residual activity,[25],98%
same,residual activity,[26],93%
same,residual activity,[27],86%
same,residual activity,[28],100%
same,residual activity,[29],100%
same,residual activity,[30],100%
same,residual activity,[31],87%
same,residual activity,[32],84%
same,residual activity,[33],72%
same,residual activity,[34],80%
same,residual activity,[35],92%
same,residual activity,[36],100%
same,residual activity,[37],84%
same,inhibition,[38],1.15%
same,residual activity,[39],41%
same,residual activity,[40],89%
same,residual activity,[41],100%
same,inhibition,Rattus norvegicus,-4.4%
same,residual activity,[42],92%
same,residual activity,[43],82%
same,residual activity,[44],99%
